In PubChem BioAssay (NCI):
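The concentration for 50% growth inhibition is given as GI50. The concentration for full growth arrest is given as TGI.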

Columns and labels:
Assay in all cases: DTP human tumour cell line panel, 384-well format
786-0 renal = system: 786-0 renal
A498 renal = system: A498 renal
A549 NSCLC = system: A549 NSCLC
ACHN renal = system: ACHN renal
BT-549 breast = system: BT-549 breast
CAKI-1 renal = system: CAKI-1 renal
CCRF-CEM leukemia = system: CCRF-CEM leukemia
COLO 205 colon = system: COLO 205 colon
DU-145 prostate = system: DU-145 prostate
EKVX NSCLC = system: EKVX NSCLC
HCC-2998 colon = system: HCC-2998 colon
HCT-116 colon = system: HCT-116 colon
HCT-15 colon = system: HCT-15 colon
HL-60(TB) leukemia = system: HL-60(TB) leukemia
HOP-62 NSCLC = system: HOP-62 NSCLC
HOP-92 NSCLC = system: HOP-92 NSCLC
HS 578T breast = system: HS 578T breast
HT29 colon = system: HT29 colon
IGROV1 ovarian = system: IGROV1 ovarian
K-562 leukemia = system: K-562 leukemia
KM12 colon = system: KM12 colon
LOX IMVI melanoma = system: LOX IMVI melanoma
M14 melanoma = system: M14 melanoma
MALME-3M melanoma = system: MALME-3M melanoma
MCF7 breast = system: MCF7 breast
MDA-MB-231 breast = system: MDA-MB-231 breast
MDA-MB-435 melanoma = system: MDA-MB-435 melanoma
MDA-MB-468 breast = system: MDA-MB-468 breast
MOLT-4 leukemia = system: MOLT-4 leukemia

Structure (SMILES): CCOc1ccn(-c2ccc(F)cc2)c(=O)c1C(=O)Nc1ccc(Oc2ccnc(N)c2Cl)c(F)c1
- GI50 ([…]-0 renal): 33.4 µM
- TGI (786-0 renal): > 100 µM
- GI50 (A498 renal): 5.04 µM
- TGI (A498 renal): 85.8 µM
- GI50 (A549 NSCLC): 7.37 µM
- TGI (A549 NSCLC): 26.3 µM
- GI50 (ACHN renal): 10.8 µM
- TGI (ACHN renal): > 100 µM
- GI50 (BT-549 breast): 8.41 µM
- TGI (BT-549 breast): 27.8 µM
- GI50 (CAKI-1 renal): 4.4 µM
- TGI (CAKI-1 renal): 23.1 µM
- GI50 (CCRF-CEM leukemia): 1.91 µM
- TGI (CCRF-CEM leukemia): 3.51 µM
- GI50 (COLO 205 colon): 2.06 µM
- TGI (COLO 205 colon): 4.32 µM
- GI50 (DU-145 prostate): 7.49 µM
- TGI (DU-145 prostate): > 100 µM
- GI50 (EKVX NSCLC): 9.83 µM
- TGI (EKVX NSCLC): 58.6 µM
- GI50 (HCC-2998 colon): 24.3 µM
- TGI (HCC-2998 colon): 68.1 µM
- GI50 (HCT-116 colon): 4.85 µM
- TGI (HCT-116 colon): 18.4 µM
- GI50 (HCT-15 colon): 4.27 µM
- TGI (HCT-15 colon): 27.7 µM
- GI50 (HL-60(TB) leukemia): 5.02 µM
- TGI (HL-60(TB) leukemia): 13.6 µM
- GI50 (HOP-62 NSCLC): 8.81 µM
- TGI (HOP-62 NSCLC): 98.3 µM
- GI50 (HOP-92 NSCLC): 5.06 µM
- TGI (HOP-92 NSCLC): 25.9 µM
- GI50 (HS 578T breast): 5.13 µM
- TGI (HS 578T breast): 21.2 µM
- GI50 (HT29 colon): 4.42 µM
- TGI (HT29 colon): 23.3 µM
- GI50 (IGROV1 ovarian): 6.27 µM
- TGI (IGROV1 ovarian): 40.5 µM
- GI50 (K-562 leukemia): 1.6 µM
- TGI (K-562 leukemia): 3.62 µM
- GI50 (KM12 colon): 0.314 µM
- TGI (KM12 colon): > 100 µM
- GI50 (LOX IMVI melanoma): 5.57 µM
- TGI (LOX IMVI melanoma): 18.2 µM
- GI50 (M14 melanoma): 2.95 µM
- TGI (M14 melanoma): 11.1 µM
- GI50 (MALME-3M melanoma): 4.88 µM
- TGI (MALME-3M melanoma): 20.7 µM
- GI50 (MCF7 breast): 11.2 µM
- TGI (MCF7 breast): > 100 µM
- GI50 (MDA-MB-231 breast): 9.78 µM
- TGI (MDA-MB-231 breast): 49.3 µM
- GI50 (MDA-MB-435 melanoma): 6.2 µM
- TGI (MDA-MB-435 melanoma): 39.5 µM
- GI50 (MDA-MB-468 breast): 3.97 µM
- TGI (MDA-MB-468 breast): 10.3 µM
- GI50 (MOLT-4 leukemia): 1.44 µM
- TGI (MOLT-4 leukemia): 2.9 µM
